Where two headings read alike, the source gives them in different places.
Biological target: T1, triton-extracted alpha-synuclein from PD Tissue (Homo sapiens, UniProt P37840)
T1 construct: tissue Analytic Biological Services Inc; host or cells: human PD temporal cortex grey matter, Triton X-100 insoluble pellet
Assay: Alpha-synuclein tissue homogenate binding assay (Assay 1), displacement of [^3H]-1000
Settings: for Ki: read-out: α-synuclein Tissue Ki (Assay 1); for Selectivity ratio (Assay 2/Assay 1): Aβ Tissue Ki / α-synuclein Tissue Ki
Method: Frozen human brain tissues from PD patients were purchased from Analytic Biological Services Inc. The samples were post-mortem tissues from donors with clinical diagnosis of late stage of PD. Alpha-synuclein, tau and amyloid burden was determined through a combination of immunohistochemistry on frozen thin coronal sections, as well as alpha Lisa-based quantification of protein levels in a detergent insoluble protein fraction. A tissue sample of temporal cortex was identified from one donor as having moderate to high alpha-synuclein burden, low amyloid and minimal to no tau pathology. The detergent insoluble fraction of temporal cortex from this patient was used to support homogenate binding studies. Grey matter was dissected out of the temporal cortex tissue with a dissecting blade and minced with fine dissecting scissors. […] Homogenates were centrifuged at 100,000×g for 45 minutes. The pellet was resuspended in TBS-TX buffer, using a Polytron at highest setting for 30 seconds at 4° C. Homogenates were centrifuged at 100,000×g for 45 minutes and the pellet was resuspended in TBS-TX buffer. A BCA protein assay was performed on the final homogenate to determine the protein concentration. […] For displacement a-synuclein binding assay, compounds and control were solvated in dimethyl sulfoxide (DMSO) and transferred using focused acoustic energy by an Echo 655 liquid handling instrument (Beckman Coulter, Indianapolis, IN) into designated wells of uniquely bar coded 96-well v-bottom low binding polypropylene microplates (Thermo Scientific, 249946). Compound dose response curves were prepared in a 10-point, 3-fold fashion within columns 2-11 of the microplate from high to low compound concentrations. […] Liquid-handling steps for dispensing insoluble fractions of PD brain homogenates and radioligand were performed using a Bravo automated liquid handling platform equipped with a 96LT disposable tip head (Agilent Technologies, Santa Clara. CA). […] The incubation was terminated by rapid filtration through UniFilter-96 GF/C microplates (pre-treated for 30 minutes with 0.2% Polyethylenimine at 4° C.) by using a FilterMate Harvester (PerkinElmer). […] The bottom of each UniFilter-96 GF/C microplate was adhesively sealed (PerkinElmer 6005199) prior to the addition of 50 μL MicroScint-20 liquid scintillation cocktail (PerkinElmer 6013621) to each well. A clear adhesive seal (TopSeal-A PLUS, PerkinElmer 6050185) was then applied to the top of each microplate and counted 1 minute/well on MicroBeta^2 system (PerkinElmer.

[1] = insoluble fraction of PD brain homogenate, [^3H]-1000 3.0 nM, Kd 0.90 nM

Row | Compound | Ki [1] [nM] | Selectivity ratio (Assay 2/Assay 1) | Ki [nM]
1 | Cn1cc(-c2ncc(C#Cc3cnc(N4CCN(c5ncccn5)[C@@H](COCCOCCOCCOCCF)C4)nc3)cn2)cn1 [Example 83, (R)-2-(3-(13-fluoro-2,5,8,11-tetraoxatridecyl)-4-(pyrimidin-2-yl)piperazin-1-yl)-5-((2-(1-methyl-1H-pyrazol-4-yl)pyrimidin-5-yl)ethynyl)pyrimidine] | 2.39 | – | –
2 | COC[C@H]1CN(c2ncc(C#Cc3ccc(-c4cnn(CCF)c4)nc3)cn2)CCN1c1ncncn1 [Example 47, (R)-2-(4-(5-((6-(1-(2-fluoroethyl)-1H-pyrazol-4-yl)pyridin-3-yl)ethynyl)pyrimidin-2-yl)-2-(methoxymethyl)piperazin-1-yl)-1,3,5-triazine] | 0.694 | – | –
3 | FCCOC[C@H]1CN(c2ncc(C#Cc3cnc(-c4cnco4)nc3)cn2)CCN1c1ncccn1 [Example 93, (R)-5-(5-((2-(3-((2-fluoroethoxy)methyl)-4-(pyrimidin-2-yl)piperazin-1-yl)pyrimidin-5-yl)ethynyl)pyrimidin-2-yl)oxazole] | 3.06 | – | –
4 | COC[C@H]1CN(c2ncc(C#Cc3cnc(-n4cnnc4)nc3)cn2)CCN1c1ccc(F)cn1 [Example 89, (R)-5-((2-(4H-1,2,4-triazol-4-yl)pyrimidin-5-yl)ethynyl)-2-(4-(5-fluoropyridin-2-yl)-3-(methoxymethyl)piperazin-1-yl)pyrimidine] | 2.59 | – | –
5 | COC[C@H]1CN(c2ncc(/C=C/c3ccc(-n4ccnc4)nc3)cn2)CCN1c1ncc(OCC(O)CF)cn1 (stereo partly drawn) [Example 39, 1-((2-((R)-4-(5-((E)-2-(6-(1H-imidazol-1-yl)pyridin-3-yl)vinyl)pyrimidin-2-yl)-2-(methoxymethyl)piperazin-1-yl)pyrimidin-5-yl)oxy)-3-fluoropropan-2-ol] | 0.52 | 7692 | –
6 | COC[C@H]1CN(c2ncc(C#Cc3cnc(-c4cnn(CCF)c4)nc3)cn2)CCN1c1ncc(F)cn1 [Example 88, (R)-5-fluoro-2-(4-(5-((2-(1-(2-fluoroethyl)-1H-pyrazol-4-yl)pyrimidin-5-yl)ethynyl)pyrimidin-2-yl)-2-(methoxymethyl)piperazin-1-yl)pyrimidine] | 0.99 | – | –
7 | COC[C@H]1CN(c2ncccn2)CCN1c1ncc(/C=C/c2ccc(-n3ccnc3)nc2)cn1 [Example 28, (R,E)-5-(2-(6-(1H-imidazol-1-yl)pyridin-3-yl)vinyl)-2-(2-(methoxymethyl)-4-(pyrimidin-2-yl)piperazin-1-yl)pyrimidine] | 1.3 | 3077 | –
8 | COC[C@H]1CN(c2ncc(C#Cc3ccc(-c4cnn(CCF)c4)nc3)cn2)CCN1c1ncc(F)cn1 [Example 90, (R)-5-fluoro-2-(4-(5-((6-(1-(2-fluoroethyl)-1H-pyrazol-4-yl)pyridin-3-yl)ethynyl)pyrimidin-2-yl)-2-(methoxymethyl)piperazin-1-yl)pyrimidine] | 1.82 | – | –
9 | FCCOCCOC[C@H]1CN(c2ncc(C#Cc3ccc(-c4cnco4)nc3)cn2)CCN1c1ncncn1 [Example 48, (R)-5-(5-((2-(3-((2-(2-fluoroethoxy)ethoxy)methyl)-4-(1,3,5-triazin-2-yl)piperazin-1-yl)pyrimidin-5-yl)ethynyl)pyridin-2-yl)oxazole] | 0.897 | – | –
10 | COC[C@H]1CN(c2ncc(C#Cc3ccc(-n4cnnc4)nc3)c(F)n2)CCN1c1ccncn1 [Example 58, (R)-5-((6-(4H-1,2,4-triazol-4-yl)pyridin-3-yl)ethynyl)-4-fluoro-2-(3-(methoxymethyl)-4-(pyrimidin-4-yl)piperazin-1-yl)pyrimidine] | 1.67 | – | –
11 | Cn1cc(-c2ncc(/C=C/c3cnc(N4CCN(c5ncncn5)[C@@H](COCCF)C4)nc3)cn2)cn1 [Example 43, (R,E)-2-(2-((2-fluoroethoxy)methyl)-4-(5-(2-(2-(1-methyl-1H-pyrazol-4-yl)pyrimidin-5-yl)vinyl)pyrimidin-2-yl)piperazin-1-yl)-1,3,5-triazine] | – | – | 1.22

Reference: patent publication US20260224758A1, “ALPHA-SYNUCLEIN BINDERS AND METHODS OF USE” (Merck Sharp & Dohme LLC, priority 2023, published 2026)
